Measured values taken from ChEMBL document CHEMBL4417624, “Small molecule c-myc inhibitors” (2016).
The source made the active and inactive calls. The rule behind the calls is not given here.

What was measured:
[1] = target: Myc proto-oncogene protein (Homo sapiens) (UniProt P01106); test: Inhibition of human ATG-Myc expressed in chicken embryo fibroblasts assessed as reduction in Myc-induced oncogenic transformation by measuring efficiency of oncogenic transformation at 10 uM
[2] = target: T1, c-Myc/Max (Homo sapiens) (UniProt P01106+P61244); test: Inhibition of dimerization of human MYC bHLH-LZ domain/MAX bHLH-LZ domain expressed in Escherichia coli in presence of Alexa Fluor 594-tagged E-box duplex DNA by fluorescence polarization assay
[3] = target: Myc proto-oncogene protein (Homo sapiens) (UniProt P01106); test: Inhibition of human ATG-Myc expressed in chicken embryo fibroblasts assessed as reduction in Myc-induced oncogenic transformation by measuring efficiency of oncogenic transformation
[4] = test system: NCI-H460; test: Antiproliferative activity against human NCI-H460 cells assessed as inhibition of cell proliferation at 10 to 40 uM incubated for 3 days by Cell-titer 96 Non-radioactive cell proliferation assay; type: functional, cell-based
[5] = Acute toxicity in rat at 10 mg/kg; type: organism-based; conditions: in vivo
[6] = organism: Homo sapiens; test: Antiproliferative activity against human Akata cells assessed as inhibition of cell proliferation at 2.5 to 10 uM incubated for 72 hrs by resazurin dye based assay; type: functional
[7] = Toxicity in nude mouse xenografted with human MDA-MB-231 cells assessed as effect on body weight at 10 mg/kg, ip dosed daily for 31 days; type: organism-based; conditions: in vivo, 744 h
[8] = test system: SUM-159-PT; test: Antiproliferative activity against human SUM159PT cells assessed as inhibition of cell proliferation at 10 to 40 uM incubated for 3 days by Cell-titer 96 Non-radioactive cell proliferation assay; type: functional, cell-based
[9] = test system: Mus musculus; test: Inhibition of Myc in nude mouse xenografted with human MDA-MB-231 cells assessed as increase in NDRG1 expression at 10 mg/kg, ip dosed daily for 31 days by Western blot analysis; type: functional, organism-based
[10] = test system: Raji; test: Antiproliferative activity against human Raji cells assessed as inhibition of cell proliferation at 2.5 to 10 uM incubated for 72 hrs by resazurin dye based assay; type: functional
[11] = Antiproliferative activity against HSF assessed as inhibition of cell proliferation at 50 uM incubated for 3 days by Cell-titer 96 Non-radioactive cell proliferation assay; conditions: human, 72 h
[12] = test system: MDA-MB-231; test: Antiproliferative activity against human MDA-MB-231 cells assessed as inhibition of cell proliferation at 10 to 40 uM incubated for 3 days by Cell-titer 96 Non-radioactive cell proliferation assay; type: functional, cell-based
[13] = test system: MDA-MB-231; test: Antitumor activity against human MDA-MB-231 cells xenografted in nude mouse assessed as reduction tumor weight at 10 mg/kg, ip dosed daily for 31 days; type: functional, organism-based
[14] = test system: SW480; test: Antiproliferative activity against human SW480 cells assessed as inhibition of cell proliferation at 50 uM incubated for 3 days by Cell-titer 96 Non-radioactive cell proliferation assay; type: functional, cell-based
[15] = test system: Avian sarcoma virus 17; test: Inhibition of Avian sarcoma virus 17 v-Jun expressed in chicken embryo fibroblasts assessed as reduction in Myc-induced oncogenic transformation by measuring efficiency of oncogenic transformation up to 20 uM
[16] = Acute toxicity in mouse at 10 mg/kg; type: organism-based; conditions: in vivo
[17] = test system: MOLT-4; test: Antiproliferative activity against human MOLT4 cells assessed as inhibition of cell proliferation at 25 uM incubated for 3 days by Cell-titer 96 Non-radioactive cell proliferation assay; type: functional, cell-based
[18] = test system: Rous sarcoma virus; test: Inhibition of Rous sarcoma virus v-SRC expressed in chicken embryo fibroblasts assessed as reduction in Myc-induced oncogenic transformation by measuring efficiency of oncogenic transformation up to 20 uM
[19] = test system: HL-60; test: Antiproliferative activity against human HL60 cells assessed as inhibition of cell proliferation at 25 uM incubated for 3 days by Cell-titer 96 Non-radioactive cell proliferation assay; type: functional, cell-based
[20] = test system: Cotesia glomerata; test: Antiproliferative activity against methylcholanthrene-transformed primary quail embryo fibroblasts assessed as inhibition of cell proliferation at 50 uM incubated for 3 days by Cell-titer 96 Non-radioactive cell proliferation assay; type: functional
[21] = test system: Ramos; test: Antiproliferative activity against human Ramos cells assessed as inhibition of cell proliferation at 2.5 to 10 uM incubated for 72 hrs by resazurin dye based assay; type: functional
[22] = test system: MDA-MB-231; test: Antitumor activity against human MDA-MB-231 cells xenografted in nude mouse assessed as reduction tumor volume at 10 mg/kg, ip dosed daily for 31 days; type: functional, organism-based
[23] = test system: MDA-MB-231; test: Effect on Myc expression in human MDA-MB-231 cells at 20 uM incubated for 24 hrs by Western blot analysis; type: functional, cell-based
[24] = target: Myc proto-oncogene protein (Homo sapiens) (UniProt P01106); conditions: MDA-MB-231, 20 uM
Description: Inhibition of Myc in human MDA-MB-231 cells assessed as increase in NDRG1 expression at 20 uM incubated for 24 hrs by Western blot analysis

[25] = test system: K562; test: Antiproliferative activity against human K562 cells assessed as inhibition of cell proliferation at 25 uM incubated for 3 days by Cell-titer 96 Non-radioactive cell proliferation assay; type: functional, cell-based
[26] = organism: Homo sapiens; test: Inhibition of PI3K H1047R mutant (unknown origin) expressed in chicken embryo fibroblasts assessed as reduction in Myc-induced oncogenic transformation by measuring efficiency of oncogenic transformation up to 20 uM
[27] = test system: Mus musculus; test: Inhibition of Myc in nude mouse xenografted with human MDA-MB-231 cells assessed as increase in NDRG1 expression at 10 mg/kg, ip dosed daily for 31 days by immunofluorescent staining; type: functional, organism-based
[28] = test system: Cotesia glomerata; test: Antiproliferative activity against v-myc-transformed primary QEF/MC29 cells assessed as inhibition of cell proliferation at 50 uM incubated for 3 days by Cell-titer 96 Non-radioactive cell proliferation assay; type: functional
[29] = target: T1, c-Myc/Max (Homo sapiens); test: Inhibition of MYC/MAX dimerization in human MDA-MB-231 cells assessed as increase in NDRG1 expression at 20 uM incubated for 24 hrs by Western blot analysis; type: cell-based
[30] = target: T1, c-Myc/Max (Homo sapiens); test: Inhibition of MYC/MAX dimerization in human MDA-MB-231 cells assessed as reduction in Myc expression at 20 uM incubated for 24 hrs by Western blot analysis; type: cell-based

Sequence of Myc proto-oncogene protein (Homo sapiens) (P01106 whole entry, the tested form may be a part): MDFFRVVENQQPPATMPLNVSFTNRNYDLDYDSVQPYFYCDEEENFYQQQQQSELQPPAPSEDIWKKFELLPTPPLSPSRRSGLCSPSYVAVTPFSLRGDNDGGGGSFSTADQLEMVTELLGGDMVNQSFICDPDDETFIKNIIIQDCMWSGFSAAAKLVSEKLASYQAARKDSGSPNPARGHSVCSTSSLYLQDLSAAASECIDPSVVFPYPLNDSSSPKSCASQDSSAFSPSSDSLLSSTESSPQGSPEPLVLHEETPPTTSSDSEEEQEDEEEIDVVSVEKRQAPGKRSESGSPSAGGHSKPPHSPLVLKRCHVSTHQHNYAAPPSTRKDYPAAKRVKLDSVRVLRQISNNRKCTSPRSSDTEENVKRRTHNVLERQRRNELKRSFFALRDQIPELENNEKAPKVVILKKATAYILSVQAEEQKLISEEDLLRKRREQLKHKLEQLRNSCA

**Q.** What does the source list for `COC(=O)c1cccc(-c2cc(-c3ccc(C(N)=O)cc3)cc(-c3ccco3)n2)c1`?
**A.** inhibition [1]: 100%; inhibition [2]: Active; inhibition [3]: Active

**Q.** For `NC(=O)c1ccc(-c2cc(-c3ccc(SC(F)(F)F)cc3)nc(-c3ccco3)c2)cc1`, which inhibition [1] is on record?
**A.** The inhibition was “inactive”.

**Q.** And the inhibition [2]?
**A.** Its inhibition is “inactive”.

**Q.** What does the source list for `NC(=O)c1ccc(-c2cc(-c3ccc(C(F)(F)F)cc3)nc(-c3ccco3)c2)cc1`?
**A.** inhibition [1]: Active; inhibition [2]: Active

**Q.** What does the source list for `CS(=O)(=O)c1ccc(-c2cc(-c3ccc(C(N)=O)cc3)cc(-c3ccco3)n2)cc1`?
**A.** inhibition [1]: inactive; inhibition [2]: inactive

**Q.** With `NC(=O)c1ccc(-c2cc(-c3ccc([N+](=O)[O-])cc3)nc(-c3ccco3)c2)cc1` as the compound, how does the Activity [4] read?
**A.** The Activity was “Active”.

**Q.** What about the Activity [5] of the same compound?
**A.** Its Activity is “Non-Toxic”.

**Q.** And the Activity [6]?
**A.** Its Activity is “Active”.

**Q.** What about the Activity [7] of the same compound?
**A.** The Activity was “Non-Toxic”.

**Q.** What about the Activity [8] of the same compound?
**A.** The Activity was “Active”.

**Q.** And the inhibition [9]?
**A.** Its inhibition is “Active”.

**Q.** And the Activity [10]?
**A.** Its Activity is “Active”.

**Q.** What about the Activity [11] of the same compound?
**A.** Its Activity is “Non-Toxic”.

**Q.** What about the Activity [12] of the same compound?
**A.** The Activity was “Active”.

**Q.** And the inhibition [1]?
**A.** Its inhibition is 100%.

**Q.** And the Activity [13]?
**A.** Its Activity is “Active”.

**Q.** What about the Activity [14] of the same compound?
**A.** Its Activity is “inactive”.

**Q.** And the inhibition [15]?
**A.** Its inhibition is “Active”.

**Q.** What about the Activity [16] of the same compound?
**A.** The Activity was “Non-Toxic”.

**Q.** What about the Activity [17] of the same compound?
**A.** The Activity was “Active”.

**Q.** What about the inhibition [2] of the same compound?
**A.** The inhibition was “Active”.

**Q.** What about the inhibition [3] of the same compound?
**A.** The inhibition was “Dose-dependent effect”.

**Q.** And the inhibition [18]?
**A.** Its inhibition is “inactive”.

**Q.** What about the Activity [19] of the same compound?
**A.** The Activity was “Active”.

**Q.** What about the Activity [20] of the same compound?
**A.** The Activity was “Active”.

**Q.** And the Activity [21]?
**A.** The Activity was “Active”.

**Q.** And the Activity [22]?
**A.** The Activity was “Active”.

**Q.** What about the Activity [23] of the same compound?
**A.** Its Activity is “inactive”.

**Q.** What about the inhibition [24] of the same compound?
**A.** The inhibition was “Active”.

**Q.** What about the Activity [25] of the same compound?
**A.** Its Activity is “Active”.

**Q.** And the inhibition [26]?
**A.** Its inhibition is “Active”.

**Q.** What about the inhibition [27] of the same compound?
**A.** Its inhibition is “Active”.

**Q.** What about the Activity [28] of the same compound?
**A.** Its Activity is “Active”.

**Q.** For `NC(=O)c1ccc(-c2cc(-c3ccc(Br)cc3)nc(-c3ccc([N+](=O)[O-])cc3)c2)cc1`, which inhibition [1] is on record?
**A.** The inhibition was “inactive”.

**Q.** And the inhibition [2]?
**A.** Its inhibition is “inactive”.

**Q.** What does the source list for `NC(=O)c1ccc(-c2cc(-c3ccc([N+](=O)[O-])cc3)nc(-c3cccc(Br)n3)c2)cc1`?
**A.** inhibition [1]: inactive; inhibition [2]: inactive

**Q.** Which inhibition [1] does the source give for `N#Cc1ccc(-c2cc(-c3ccc(C(N)=O)cc3)cc(-c3ccco3)n2)cc1` here?
**A.** Its inhibition is 100%.

**Q.** And the inhibition [2]?
**A.** Its inhibition is “Active”.

**Q.** What about the inhibition [3] of the same compound?
**A.** The inhibition was “Active”.

**Q.** Which inhibition [2] does the source give for `NC(=O)c1ccc(-c2cc(-c3ccc(S(N)(=O)=O)cc3)nc(-c3ccco3)c2)cc1` here?
**A.** The inhibition was “Active”.

**Q.** For `COC(=O)c1ccc(-c2cc(-c3ccc(C(N)=O)cc3)cc(-c3ccco3)n2)cc1`, which inhibition [1] is on record?
**A.** The inhibition was “inactive”.

**Q.** What about the inhibition [2] of the same compound?
**A.** Its inhibition is “inactive”.

**Q.** What does the source list for `CCc1ccc(/C=C2/SC(=S)NC2=O)cc1`?
**A.** inhibition [29]: Active; inhibition [30]: Active

**Q.** Which inhibition [1] does the source give for `NC(=O)c1ccc(-c2cc(-c3ccc([N+](=O)[O-])cc3)nc(-c3ccccn3)c2)cc1` here?
**A.** Its inhibition is “inactive”.

**Q.** What about the inhibition [2] of the same compound?
**A.** The inhibition was “inactive”.

**Q.** With `NC(=O)c1ccc(-c2cc(-c3ccncc3)nc(-c3ccc([N+](=O)[O-])cc3)c2)cc1` as the compound, how does the inhibition [1] read?
**A.** Its inhibition is 100%.

**Q.** And the inhibition [2]?
**A.** Its inhibition is “Active”.

**Q.** For `CN1CCN(c2ccc(-c3cc(-c4ccc(C(N)=O)cc4)cc(-c4ccc([N+](=O)[O-])cc4)n3)cc2)CC1`, which inhibition [2] is on record?
**A.** Its inhibition is “inactive”.

**Q.** And the inhibition [3]?
**A.** Its inhibition is “Active”.

**Q.** With `NC(=O)c1ccc(-c2cc(-c3ccc([N+](=O)[O-])cc3)nc(-c3ccco3)c2)o1` as the compound, how does the inhibition [1] read?
**A.** The inhibition was “Active”.

**Q.** And the inhibition [2]?
**A.** The inhibition was “Active”.

**Q.** Which inhibition [1] does the source give for `NC(=O)c1ccc(-c2cc(-c3ccc([N+](=O)[O-])cc3)nc(-c3ccc(Br)cn3)c2)cc1` here?
**A.** Its inhibition is “inactive”.

**Q.** What about the inhibition [2] of the same compound?
**A.** The inhibition was “inactive”.

**Q.** Which inhibition [1] does the source give for `NC(=O)c1ccc(-c2cc(-c3ccc(OC(F)(F)F)cc3)nc(-c3ccco3)c2)cc1` here?
**A.** Its inhibition is “Active”.

**Q.** And the inhibition [2]?
**A.** The inhibition was “Active”.

**Q.** Which results are given for `NC(=O)c1ccc(-c2cc(-c3ccc([N+](=O)[O-])cc3)nc(-c3ccccc3Br)c2)cc1`?
**A.** inhibition [1]: inactive; inhibition [2]: inactive
